Experiments:
dmJMJD7 [1] = biological target: T1, dmJMJD7 (Drosophila melanogaster, UniProt Q9VU77); test: crystal structure; SPE-MS inhibition assay with DRG1 peptide; type: biochemical
T1 construct: gene JMJD7; full-length dmJMJD7, aa 1–316, N-terminally His6-tagged

dmJMJD7 [2] = biological target: T1, dmJMJD7; test: crystal structure; type: binding

T1 sequence (Q9VU77 whole entry, the tested form may be a part): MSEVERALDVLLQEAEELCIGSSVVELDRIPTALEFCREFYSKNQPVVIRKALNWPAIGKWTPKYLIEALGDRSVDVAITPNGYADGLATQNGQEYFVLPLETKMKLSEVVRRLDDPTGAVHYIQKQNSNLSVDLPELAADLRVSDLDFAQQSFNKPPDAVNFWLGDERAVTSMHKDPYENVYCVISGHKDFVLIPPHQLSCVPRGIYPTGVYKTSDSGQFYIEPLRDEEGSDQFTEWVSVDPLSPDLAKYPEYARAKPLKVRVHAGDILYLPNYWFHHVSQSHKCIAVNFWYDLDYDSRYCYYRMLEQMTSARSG

Row | Structure (SMILES) | IC50 (dmJMJD7 [1]) [nM] | crystal structure (dmJMJD7 [2])
1 | O=C(O)c1ccnc(C(=O)O)c1 [2,4-PDCA, pyridine-2,4-dicarboxylate] | 1340 | –
2 | O=C(O)CCC(=O)C(=O)O [2OG, 2-oxoglutarate] | – | crystals of His6-dmJMJD7.Mn complexed with its co-substrate 2OG or co-product succinate
3 | O=C(O)C(=O)N[C@H](Cc1ccccc1)C(=O)O [NOFD, N-oxalyl-D-phenylalanine] | – | dmJMJD7.N-oxalyl-D-phenylalanine (PDB: 7YXL)
4 | O=C(O)CCC(=O)O [succinate] | – | dmJMJD7.succinate (PDB: 7YXH)

More lines, main results first:

Row | IC50 (dmJMJD7 [1]) [nM] | Structure (SMILES) | crystal structure (dmJMJD7 [2])
5 | 4140 | C[C@@H](NC(=O)C(=O)O)C(=O)O [NODA, N-oxalyl-D-alanine] | –
6 | 300 | O=C(O)CNC(=O)C(=O)O [NOG, N-oxalylglycine] | –
